These results are taken from patent US10233205B2, “Magnetic resonance imaging contrast agent capable of detecting hydrogen peroxide and reducing reactive oxygen species” (Auburn University, priority 2015, dated 2019).

The nature of one series: Cyclic voltammetry. The settings on record: for ΔE, separation between anodic and cathodic peaks: ligand redox feature. In kind it is physicochemical. As for the experimental part:
All ^1H and ^13C NMR spectra were recorded on a 400 MHz AV Bruker NMR spectrometer; all reported resonances were referenced to internal standards. Electron paramagnetic resonance (EPR) spectra were collected using a Bruker EMX-6/1 X-band EPR spectrometer operated in the perpendicular mode. The acquired data were analyzed with the program EasySpin. Each sample was run as a frozen solution in a quartz tube. High-resolution mass spectrometry (HR-MS) data were obtained at the Mass Spectrometer Center at Auburn University on a Bruker microflex LT MALDI-TOF mass spectrometer via direct probe analysis operated in the positive ion mode. IR data were collected using a Shimadzu IR Prestige-21 FT-IR spectrophotometer. A Johnson Matthey magnetic susceptibility balance (model MK I#7967) was used to measure the magnetic properties of the Mn(II) complex with H2qtp1; the reported eff value was the average of those measured for two independently prepared solid samples. Atlantic Microlabs (Norcross, Ga.) performed the elemental analyses (C, H, N). All samples submitted for elemental analysis were crystallized and dried under vacuum prior to their shipment. All cyclic voltammetry was performed under N2 at 294 K using an Epsilon electrochemistry workstation (Bioanalytical System, Inc.), a gold working electrode, a platinum wire auxiliary electrode, and a Ag/AgCl reference electrode.
Complex 3 was studied by cyclic voltammetry (CV) in water containing 50 mM phosphate to buffer the solution to pH 7.2. A redox feature with E1/2 of 60 mV vs. Ag/AgCl (295 mV vs. NHE) is observed (FIG. 22).
Similar redox processes were found for both 1 and a Zn(II)-H2qtp1 complex, leading us to assign the 60 mV redox event to the oxidation of the ligand, rather than the manganese. The separation between the anodic and cathodic peaks (ΔE) for this feature is 230 mV; this is much less reversible than its analog in the CV of 1 (75 mV). A second and entirely irreversible redox event at 725 mV (960 mV vs NHE) is tentatively assigned to the oxidation of Mn(II) to Mn(III). For this analysis, the scan rate was 100 mV/s. For the quasi-reversible feature: E1/2=57 mV vs. Ag/AgCl, ΔE=232 mV. An irreversible feature with Epc=725 mV is also observed.

Series [1] can be described thus: T1-weighted relaxivity (r1) on 3 T clinical MRI scanner. The series is classed as physicochemical. The conditions noted are these: 50 mM HEPES pH 7.00, 3 T.
Series [2] can be described thus: DPPH free radical scavenging assay. The series is classed as biochemical. The settings on record: Example 1. As for the experimental part: An alternative assessment of the Mn(II) complexes' anti-oxidant properties relied upon the DPPH assay. Aqueous solutions of either 1, 2, or ascorbic acid were added to a solution of 0.10 mM DPPH in MeOH, such that the final reaction volume was 0.2 mL. Samples were incubated in the dark for 30 min at room temperature. Spectrophotometric measurements were subsequently performed at 517 nm using a Molecular Devices Spectramax Plus. This wavelength corresponds to the λmax of the reduced product. Experiments were performed in triplicate and repeated twice.
The anti-oxidant properties of 1 and 2 were also assessed using the DPPH assay (DPPH=2,2-diphenyl-1-picrylhydrazyl radical hydrate), which evaluates the ability of a compound to donate hydrogen atoms to DPPH to yield the corresponding hydrazine. The anti-oxidants were added to DPPH and incubated in the dark for 30 min at room temperature. Spectroscopic measurements were performed at 517 nm. The data were normalized to the absorbance in the presence of vehicle. All experiments were performed in triplicate and repeated twice.
Complex 3 is also a competent […] as assessed by the DPPH assay (FIG. 33), which tests the abilities of compounds to donate hydrogen atoms to 2,2-diphenyl-1-picrylhydrazyl radical hydrate. […] The data were normalized to the absorbance in the presence of vehicle. […] The hydrazine product is monitored by UV/vis.

Series [3] in a line: Metal exchange with Fe(ClO4)2 followed by UV/vis. In kind it is physicochemical. The settings on record: 0.10 mM complex + 0.10 mM Fe(ClO4)2, MeCN. As for the experimental part: Over this time, collected UV/vis spectra (FIGS. 2 & 3) display changes in the region between 200 nm and 300 nm which are consistent with the oxidation of the quinol to a para-quinone. Past 24 h, the solution begins to turn brown, consistent with oxidation of the manganese to Mn(III) and/or Mn(IV). For the spectrophotometric analysis, the Fe(ClO4)2 solution was added to a MeCN solution containing 0.10 mM [Mn(Hptp1)(MeCN)]^2+; the mixture was scanned at 0 min (dashed red), 30 min (dashed pink), and 60 min (dashed blue). […] At 15 h, approximately 11% of the Mn(II) has been displaced by Fe(II) as indicated by data in FIG. 3.
The stability of 3 to air and adventitious metal ions was assessed primarily by UV/vis spectroscopy. […] Complex 3, however, is susceptible to metal exchange. When equimolar amounts of 3 and Fe(ClO4)2 are mixed in MeCN, 80% of the Mn(II) is replaced by Fe(II) by 3 h.

Series [4] can be described thus: Potentiometric pH titrations, Hyperquad model.
Text: The speciation in water was more rigorously probed with potentiometric pH titrations. […] The quinolic protons likely deprotonate at higher pH values (pKa˜10), but we were unable to obtain the high pH data necessary to confirm this.
The data were fit to a model containing the protonated forms of the free ligand and four Mn(II) complexes with the ligand in various protonation states: [Mn(H2qtp2)], [Mn(H3qtp2)]^+, [Mn(H4qtp2)]^2+, and [Mn(H4qtp2)]^3+ (Scheme 4).

Several values for one entry are separate records, joined by “and”; a condition that tells them apart may be missing. Equal entries are not always repeated.

For `CC#N.O=S(=O)([O-])C(F)(F)F.O=S(=O)([O-])C(F)(F)F.[Mn+2].[O-]c1ccc(O)cc1CN(CCN(Cc1ccccn1)Cc1ccccn1)Cc1ccccn1` [Complex 1, Acetonitrilo(N-(2,5-dihydroxy-benzyl)-N,N′,N′-tris(2-pyridinylmethyl)-1,2-ethanediamine)manganese(II) triflate], in the series “Cyclic voltammetry”, the “ΔE, separation between anodic and cathodic peaks” value is on record as 75 mV. Further, the “E1/2 vs. NHE” value in “Cyclic voltammetry” (phosphate buffer pH 7.2, ligand feature) is on record as “about 300 mV”. Also, in series [1] (2 mM KO2), the “r1 after addition of KO2” value turned out to be 5520 M⁻¹ s⁻¹. For the same compound, the “r1 after addition of NaClO” value in series [1] (10 mM NaClO) was 4.82 mM⁻¹ s⁻¹. Moreover, the “r1 of fully oxidized sensor” value in series [1] (oxidized by DDQ) was 5.56 mM⁻¹ s⁻¹.
Regarding `CC#N.Cc1ccc(O)c(CN(CCN(Cc2ccccn2)Cc2ccccn2)Cc2ccccn2)c1.[Mn+2].[O-][Cl+3]([O-])([O-])[O-].[O-][Cl+3]([O-])([O-])[O-]` [Complex 2, reference compound], the “DPPH reduction” value in series [2] is reported as “fails to reduce DPPH to a noticeable degree”. For the same compound, the “displacement of Mn(II) by Fe(II)” value in series [3] (0-60 min) is on record as “negligible displacement”. For the same compound, the “Mn(II) displaced by Fe(II)” value in series [3] (15 h) is “approximately 11%”.
As for “cis-Dibromo(N,N′-bis(2,5-dihydroxybenzyl)-N,N′-bis(2-pyridinylmethyl)-1,2-ethanediamine)manganese(II) [Complex 3]”, the “ΔE, separation between anodic and cathodic peaks” value in “Cyclic voltammetry” was 230 mV and 232 mV. For the same compound, the “E1/2 vs. Ag/AgCl” value in “Cyclic voltammetry” (phosphate buffer pH 7.2, quasi-reversible ligand feature) is 60 mV and 57 mV. In addition, in “Cyclic voltammetry” (tentatively Mn(II) to Mn(III)), the “irreversible redox event (Epc) vs. Ag/AgCl” value came to 725 mV and the “irreversible redox event vs NHE” value is 960 mV. In addition, the “percentage of free Mn(II)” value in series [4] (pH 7.0) came out at 1.4%. In addition, in series [4] (pH 7.4), the “manganese bound by some form of the ligand” value is listed as “Over 99%”.
